Reference: patent US20220380763A1, “NUCLEIC ACID DELIVERY ENHANCER” (NATIONAL UNIVERSITY CORPORATION KOCHI UNIVERSITY, priority 2019, published 2022)

Experiments:
[1] = test system: S2-013 cells; assay: Matrigel invasion assay; format: cell-based, human; settings: unmodified siRNA added with folic acid-cationic oligopeptide complex (Fol-Dab8A and Fol-Dab8B); versus control siRNA, P<0.05
Description: Each of the scrambled control siRNA, SNORA18 siRNA, NUP85 siRNA, WASF2 siRNA, and SNORA22 siRNA (all used in Example 5) with the folic acid-cationic oligopeptide complex added was added to the culture solution of S2-013 cells, and Matrigel invasion assay was performed after 48 hours.
4.0×10^4 cells were suspended in a serum-free medium and seeded in the upper chamber of a Matrigel Invasion Chamber (24-well plate, pore size: 8 μm, manufactured by Becton, Dickinson, and Company). A solvent containing 5% fetal bovine serum was added to the lower chamber. After the cells were incubated in the upper chamber for 20 hours, three independent areas were observed under a microscope, and the cells invading the lower chamber were counted. The same experiment was repeated three times, and the cell invasion ability of 52-013 cells into which each siRNA was taken up was compared.
The “*” denotes a significant difference at P<0.05 as compared to the control in the t-test.
Each of the scrambled control siRNA (SEQ ID NOs: 3 and 4), SNORA18 siRNA (SEQ ID NOs: 21 and 22), NUP85 siRNA (SEQ ID NOs: 23 and 24), WASF2 siRNA (SEQ ID NOs: 25 and 26), and SNORA22 siRNA (SEQ ID NOs: 27 and 28) was added with 2 equivalents of Dab8, Fol-Dab8A, or Fol-Dab8B to the culture solution of pancreatic cancer cell line S2-013 in culture. As a control, each of the control siRNA, SNORA18 siRNA, NUP85 siRNA, WASF2 siRNA, and SNORA22 siRNA was added alone to the culture solution of the S2-013 cells.
After 48 hours of culture, the Matrigel invasion assay was performed. In the Matrigel invasion assay, the number of cells that have migrated from the upper chamber to the lower chamber is shown. The “*” denotes a significant difference at P<0.05 as compared to the control in the t-test.

[2] = test system: S2-013 pancreatic cancer cells; assay: Lysosome (LysoTracker) and siRNA staining, confocal microscopy; format: cell-based, human; settings: chemically-modified Alexa488-labeled siRNA with Fol-Dab8A or Fol-Dab8B, 2 equivalents, overnight

Substance	cell invasion [1]	intracellular localization of siRNA [2]
NUP85 siRNA: double-stranded siRNA against NUP85, SEQ ID NOs: 7 and 8 (Table 2) (chain 1 CAGCGGCAGAUGACUGAACAA; chain 2 UUGUUCAGUCAUCUGCCGCUG; listed as RNA, chemistry not given here)	significantly suppressed	–
SNORA18 siRNA: double-stranded siRNA against SNORA18, SEQ ID NOs: 5 and 6 (Table 2) (chain 1 UUUACUUUACUCACAGGACUA; chain 2 UAGUCCUGUGAGUAAAGUAAA; listed as RNA, chemistry not given here)	significantly suppressed	–
SNORA22 siRNA: double-stranded siRNA against SNORA22, SEQ ID NOs: 11 and 12 (Table 2) (chain 1 CUUGGCUUUGACCCUGUGCUA; chain 2 UAGCACAGGGUCAAAGCCAAG; chemistry not given here)	significantly suppressed	localized in lysosomes
WASF2 siRNA: double-stranded siRNA against WASF2, SEQ ID NOs: 9 and 10 (Table 2) (chain 1 UAGGAUUAGAUCAUUAGCUCA; chain 2 UGAGCUAAUGAUCUAAUCCUA; listed as RNA, chemistry not given here)	significantly suppressed	–
